Paper PMC5218480 (PLoS ONE, 2017)

System: MV-4-11 cells
Assay: Gene expression microarray analysis (Affymetrix PrimeView) and GSEA
Assay type: cell-based, human
Parameters: RFU PODN (11730768_x_at) / Fold change /veh PODN (11730768_x_at) / RFU LINC00158 (11744669_a_at) / Fold change /veh LINC00158 (11744669_a_at) / RFU DUSP10 (11751237_a_at) / Fold change /veh DUSP10 (11751237_a_at) / RFU ID3 (11757404_x_at) / Fold change /veh ID3 (11757404_x_at) / RFU PLEKHG5 (11737974_s_at) / Fold change /veh PLEKHG5 (11737974_s_at) / RFU LRRC4B (11730491_at) / Fold change /veh LRRC4B (11730491_at) / RFU GIMAP4 (11747438_a_at) / Fold change /veh GIMAP4 (11747438_a_at) / RFU KRT8 (11758183_x_at) / Fold change /veh KRT8 (11758183_x_at) / RFU CNN1 (11734310_a_at) / Fold change /veh CNN1 (11734310_a_at) / RFU VPS37D (11726825_at) / Fold change /veh VPS37D (11726825_at) / RFU C10orf10 (11716522_x_at) / Fold change /veh C10orf10 (11716522_x_at) / RFU KIR2DL2 /// KIR2DL4 /// KIR2DL5A /// KIR2DL5B /// KIR2DS1 /// KIR2DS2 /// KIR2DS3 /// KIR2DS4 /// KIR3DL3 /// KIR3DL3 /// KIR3DS1 (11738374_at) / Fold change /veh KIR2DL2 /// KIR2DL4 /// KIR2DL5A /// KIR2DL5B /// KIR2DS1 /// KIR2DS2 /// KIR2DS3 /// KIR2DS4 /// KIR3DL3 /// KIR3DL3 /// KIR3DS1 (11738374_at) / RFU C1QL1 (11718748_at) / Fold change /veh C1QL1 (11718748_at) / RFU TMPRSS4 (11747572_a_at) / Fold change /veh TMPRSS4 (11747572_a_at) / RFU HAMP (11756126_x_at) / Fold change /veh HAMP (11756126_x_at) / RFU RNFT2 (11725882_a_at) / Fold change /veh RNFT2 (11725882_a_at) / RFU NR4A2 (11747474_a_at) / Fold change /veh NR4A2 (11747474_a_at) / RFU ABCC12 (11746883_a_at) / Fold change /veh ABCC12 (11746883_a_at) / RFU TMEM136 (11760407_x_at) / Fold change /veh TMEM136 (11760407_x_at) / RFU CLDN22 /// WWC2 (11732394_at) / Fold change /veh CLDN22 /// WWC2 (11732394_at) / RFU HLA-DPB1 (11760878_x_at) / Fold change /veh HLA-DPB1 (11760878_x_at) / RFU SPINT1 (11716480_a_at) / Fold change /veh SPINT1 (11716480_a_at) / RFU GAP43 (11754022_s_at) / Fold change /veh GAP43 (11754022_s_at) / RFU A4GNT (11735810_at) / Fold change /veh A4GNT (11735810_at) / RFU PRB3 (11715151_x_at) / Fold change /veh PRB3 (11715151_x_at) / RFU TUBB4B (11761932_at) / Fold change /veh TUBB4B (11761932_at) / RFU CAPN14 (11732068_a_at) / Fold change /veh CAPN14 (11732068_a_at) / RFU TMCC2 (11721928_a_at) / Fold change /veh TMCC2 (11721928_a_at) / RFU IRGQ (11745062_a_at) / Fold change /veh IRGQ (11745062_a_at) / RFU FAM174B (11720279_a_at) / Fold change /veh FAM174B (11720279_a_at) / RFU TMPRSS4 (11748680_a_at) / Fold change /veh TMPRSS4 (11748680_a_at) / RFU FAM212B (11763350_a_at) / Fold change /veh FAM212B (11763350_a_at) / RFU PLEKHG5 (11743358_a_at) / Fold change /veh PLEKHG5 (11743358_a_at) / RFU ZSCAN30 (11745921_a_at) / Fold change /veh ZSCAN30 (11745921_a_at) / RFU CMKLR1 (11741424_a_at) / Fold change /veh CMKLR1 (11741424_a_at) / RFU LOC101060620 /// MAPK8IP1 (11723275_at) / Fold change /veh LOC101060620 /// MAPK8IP1 (11723275_at) / RFU SPTSSB (11747773_x_at) / Fold change /veh SPTSSB (11747773_x_at) / RFU PRSS12 (11739890_at) / Fold change /veh PRSS12 (11739890_at) / RFU BIN1 (11741810_x_at) / Fold change /veh BIN1 (11741810_x_at) / RFU WNT11 (11732464_a_at) / Fold change /veh WNT11 (11732464_a_at) / RFU C10orf10 (11716521_a_at) / Fold change /veh C10orf10 (11716521_a_at) / RFU C5orf56 (11738089_at) / Fold change /veh C5orf56 (11738089_at) / RFU CYB561 (11721691_x_at) / Fold change /veh CYB561 (11721691_x_at) / RFU ANKRD19P (11752326_a_at) / Fold change /veh ANKRD19P (11752326_a_at) / RFU OR2T12 /// OR2T33 /// OR2T8 (11738714_s_at) / Fold change /veh OR2T12 /// OR2T33 /// OR2T8 (11738714_s_at) / RFU VCAN (11748164_a_at) / Fold change /veh VCAN (11748164_a_at) / RFU JSRP1 (11732532_at) / Fold change /veh JSRP1 (11732532_at) / RFU KRTAP10-11 (11738290_x_at) / Fold change /veh KRTAP10-11 (11738290_x_at) / RFU MYO3A (11730013_a_at) / Fold change /veh MYO3A (11730013_a_at) / RFU EBF3 (11725865_a_at) / Fold change /veh EBF3 (11725865_a_at) / RFU CAMK2N1 (11719241_x_at) / Fold change /veh CAMK2N1 (11719241_x_at) / RFU C5orf56 (11738088_a_at) / Fold change /veh C5orf56 (11738088_a_at) / RFU OLFML3 (11715873_a_at) / Fold change /veh OLFML3 (11715873_a_at) / RFU LOC100653217 /// NTM (11731650_a_at) / Fold change /veh LOC100653217 /// NTM (11731650_a_at) / RFU MAPK11 (11762145_a_at) / Fold change /veh MAPK11 (11762145_a_at) / RFU FIZ1 (11724087_x_at) / Fold change /veh FIZ1 (11724087_x_at) / RFU OASL (11726364_x_at) / Fold change /veh OASL (11726364_x_at) / RFU SOX15 (11748057_x_at) / Fold change /veh SOX15 (11748057_x_at) / RFU CD79A (11719716_a_at) / Fold change /veh CD79A (11719716_a_at) / RFU HIST1H1D (11736915_at) / Fold change /veh HIST1H1D (11736915_at) / RFU CASKIN2 (11723855_a_at) / Fold change /veh CASKIN2 (11723855_a_at) / RFU LOC730098 (11760151_x_at) / Fold change /veh LOC730098 (11760151_x_at) / RFU OR4N2 (11742367_at) / Fold change /veh OR4N2 (11742367_at) / RFU PRRT2 (11749266_a_at) / Fold change /veh PRRT2 (11749266_a_at) / RFU SNX32 (11753110_a_at) / Fold change /veh SNX32 (11753110_a_at) / RFU CDHR5 (11726645_a_at) / Fold change /veh CDHR5 (11726645_a_at) / RFU RCAN1 (11760418_a_at) / Fold change /veh RCAN1 (11760418_a_at) / RFU FAM167A (11723789_a_at) / Fold change /veh FAM167A (11723789_a_at) / RFU FAM26E (11764081_at) / Fold change /veh FAM26E (11764081_at) / RFU ISYNA1 (11749810_s_at) / Fold change /veh ISYNA1 (11749810_s_at) / RFU ACY1 (11761880_at) / Fold change /veh ACY1 (11761880_at) / RFU 11764098_at / Fold change /veh 11764098_at / RFU SAMD14 (11745864_x_at) / Fold change /veh SAMD14 (11745864_x_at) / RFU NPB (11741838_a_at) / Fold change /veh NPB (11741838_a_at) / RFU TMPRSS6 (11731388_a_at) / Fold change /veh TMPRSS6 (11731388_a_at) / RFU KRTAP10-2 (11738614_at) / Fold change /veh KRTAP10-2 (11738614_at) / RFU ARHGAP8 /// PRR5-ARHGAP8 (11727945_x_at) / Fold change /veh ARHGAP8 /// PRR5-ARHGAP8 (11727945_x_at) / RFU KRTAP5-7 /// NADSYN1 (11734609_at) / Fold change /veh KRTAP5-7 /// NADSYN1 (11734609_at) / RFU RASL12 (11751679_a_at) / Fold change /veh RASL12 (11751679_a_at) / RFU CDKN2B (11736163_a_at) / Fold change /veh CDKN2B (11736163_a_at) / RFU PRF1 (11729649_at) / Fold change /veh PRF1 (11729649_at) / RFU, ZNF638 /// ZNF638-IT1 / Fold change vs veh, ZNF638 /// ZNF638-IT1 / RFU, PANK3 / Fold change vs veh, PANK3 / RFU, SH3YL1 / Fold change vs veh, SH3YL1 / RFU, ZEB2 / Fold change vs veh, ZEB2 / RFU, NRIP1 / Fold change vs veh, NRIP1 / RFU, PTTG1IP / Fold change vs veh, PTTG1IP / RFU, CAPN2 / Fold change vs veh, CAPN2 / RFU, MED14 / Fold change vs veh, MED14 / RFU, SNORA58 / Fold change vs veh, SNORA58 / RFU, C1orf63 / Fold change vs veh, C1orf63 / RFU, LRRFIP1 / Fold change vs veh, LRRFIP1 / RFU, NDUFAF7 / Fold change vs veh, NDUFAF7 / RFU, SLC12A2 / Fold change vs veh, SLC12A2 / RFU, IBTK / Fold change vs veh, IBTK / RFU, ESF1 / Fold change vs veh, ESF1 / Fold change vs veh, TMEM50B / RFU, TAOK1 / Fold change vs veh, TAOK1 / RFU, ACBD3 / Fold change vs veh, ACBD3 / RFU, TMA16 / Fold change vs veh, TMA16 / RFU, RWDD3 / Fold change vs veh, RWDD3 / RFU, BCAT1 / Fold change vs veh, BCAT1 / RFU, EDEM3 / Fold change vs veh, EDEM3 / RFU, TMEM33 / Fold change vs veh, TMEM33 / RFU, WDR75 / Fold change vs veh, WDR75 / RFU, AHCTF1 / Fold change vs veh, AHCTF1 / RFU, TFRC / Fold change vs veh, TFRC / RFU, ZDHHC17 / Fold change vs veh, ZDHHC17 / RFU, NOM1 / Fold change vs veh, NOM1 / RFU, ARL8B / Fold change vs veh, ARL8B / RFU, ZBTB11 / Fold change vs veh, ZBTB11 / RFU, TAMM41 / Fold change vs veh, TAMM41 / RFU, KIAA1704 /// LOC100996395 / Fold change vs veh, KIAA1704 /// LOC100996395 / RFU, ING1 / Fold change vs veh, ING1 / RFU, TRMT61B / Fold change vs veh, TRMT61B / RFU, FUBP3 / Fold change vs veh, FUBP3 / RFU, TP53 / Fold change vs veh, TP53 / RFU, TNKS2 / Fold change vs veh, TNKS2 / RFU, ZFP14 / Fold change vs veh, ZFP14 / RFU, ACTR2 / Fold change vs veh, ACTR2 / RFU, PPP3R1 / Fold change vs veh, PPP3R1 / RFU, PIK3R1 / Fold change vs veh, PIK3R1 / RFU, HNRNPA1 / Fold change vs veh, HNRNPA1 / RFU, RNF170 / Fold change vs veh, RNF170 / RFU, ZNF28 / Fold change vs veh, ZNF28 / RFU, RNGTT / Fold change vs veh, RNGTT / RFU, OGT / Fold change vs veh, OGT / RFU, BRD1 / Fold change vs veh, BRD1 / RFU, MARS / Fold change vs veh, MARS / RFU, ZNF655 / Fold change vs veh, ZNF655 / RFU, FAHD1 / Fold change vs veh, FAHD1 / RFU, BDP1 / Fold change vs veh, BDP1 / RFU, LRRCC1 / Fold change vs veh, LRRCC1 / RFU, ARID1A / Fold change vs veh, ARID1A / RFU, ZNF146 / Fold change vs veh, ZNF146 / RFU, ZNF330 / Fold change vs veh, ZNF330 / RFU, GPN3 / Fold change vs veh, GPN3 / RFU, C9orf123 / Fold change vs veh, C9orf123 / RFU, N4BP2L2 / Fold change vs veh, N4BP2L2 / RFU, ARFIP1 / Fold change vs veh, ARFIP1 / RFU, FAM179B / Fold change vs veh, FAM179B / RFU, BCL10 / Fold change vs veh, BCL10 / RFU, UHRF1BP1L / Fold change vs veh, UHRF1BP1L / RFU, BET1 / Fold change vs veh, BET1 / RFU, CNOT2 / Fold change vs veh, CNOT2 / RFU, ZNF268 / Fold change vs veh, ZNF268 / Fold change vs veh, ZNF507 / RFU, DGCR2 / Fold change vs veh, DGCR2 / RFU, WDSUB1 / Fold change vs veh, WDSUB1 / Fold change vs veh, HSP90B1 /// MIR3652 / RFU, ADSS / Fold change vs veh, ADSS / RFU, GK / Fold change vs veh, GK / RFU, ZNF148 / Fold change vs veh, ZNF148 / RFU, TAF9 / Fold change vs veh, TAF9 / RFU, SLC1A5 / Fold change vs veh, SLC1A5 / RFU, SLMO2 / Fold change vs veh, SLMO2 / RFU, ABCC4 / Fold change vs veh, ABCC4 / RFU, LOC101060439 /// RAP1B / Fold change vs veh, LOC101060439 /// RAP1B / RFU, RFX7 / Fold change vs veh, RFX7 / RFU, GTPBP10 / Fold change vs veh, GTPBP10 / RFU, CNEP1R1 / Fold change vs veh, CNEP1R1 / RFU, BIVM-ERCC5 /// ERCC5 / Fold change vs veh, BIVM-ERCC5 /// ERCC5 / RFU, ILF3 / Fold change vs veh, ILF3 / RFU 11762660_at / Fold change /veh 11762660_at / RFU VCAN (11757783_s_at) / Fold change /veh VCAN (11757783_s_at) / RFU DDX43 (11728927_at) / Fold change /veh DDX43 (11728927_at) / RFU KRT8 (11758188_x_at) / Fold change /veh KRT8 (11758188_x_at) / RFU NKD1 (11759106_at) / Fold change /veh NKD1 (11759106_at) / RFU SRD5A1 (11742802_a_at) / Fold change /veh SRD5A1 (11742802_a_at) / RFU TPSAB1 /// TPSB2 (11721975_s_at) / Fold change /veh TPSAB1 /// TPSB2 (11721975_s_at) / RFU GSTM3 (11746129_a_at) / Fold change /veh GSTM3 (11746129_a_at) / RFU IL23R (11737362_x_at) / Fold change /veh IL23R (11737362_x_at) / RFU TMEM51 (11727254_a_at) / Fold change /veh TMEM51 (11727254_a_at) / RFU PIWIL2 (11732686_x_at) / Fold change /veh PIWIL2 (11732686_x_at) / RFU ORM1 (11744905_x_at) / Fold change /veh ORM1 (11744905_x_at) / RFU CCDC152 (11743942_at) / Fold change /veh CCDC152 (11743942_at) / RFU ECM1 (11717891_a_at) / Fold change /veh ECM1 (11717891_a_at) / RFU IL23R (11748794_a_at) / Fold change /veh IL23R (11748794_a_at) / RFU TNFAIP8L3 (11732012_x_at) / Fold change /veh TNFAIP8L3 (11732012_x_at) / RFU MBOAT4 (11741988_at) / Fold change /veh MBOAT4 (11741988_at) / RFU 11764193_at / Fold change /veh 11764193_at / RFU TMEM53 (11763286_at) / Fold change /veh TMEM53 (11763286_at) / RFU MAGEB2 (11727129_at) / Fold change /veh MAGEB2 (11727129_at) / RFU TMEM200A (11744735_a_at) / Fold change /veh TMEM200A (11744735_a_at) / RFU CCDC152 (11751479_a_at) / Fold change /veh CCDC152 (11751479_a_at) / RFU FAM211A (11726209_a_at) / Fold change /veh FAM211A (11726209_a_at) / RFU RGS16 (11746705_a_at) / Fold change /veh RGS16 (11746705_a_at) / RFU VCAN (11755009_s_at) / Fold change /veh VCAN (11755009_s_at) / RFU RHOB (11743442_s_at) / Fold change /veh RHOB (11743442_s_at) / RFU RGS16 (11720943_a_at) / Fold change /veh RGS16 (11720943_a_at) / RFU RGS16 (11720944_at) / Fold change /veh RGS16 (11720944_at) / RFU, VPS4B / Fold change vs veh, VPS4B / RFU, CREB1 / Fold change vs veh, CREB1 / RFU, DNAJC13 / Fold change vs veh, DNAJC13 / RFU, GNAQ / Fold change vs veh, GNAQ / RFU, CDK5R1 / Fold change vs veh, CDK5R1 / RFU, ZRANB3 / Fold change vs veh, ZRANB3 / RFU, CUL4A / Fold change vs veh, CUL4A / RFU, CCNY / Fold change vs veh, CCNY / RFU, UFL1 / Fold change vs veh, UFL1 / RFU, COG3 / Fold change vs veh, COG3 / RFU, DIAPH2 / Fold change vs veh, DIAPH2 / RFU, SKA2 / Fold change vs veh, SKA2 / RFU, AFF3 / Fold change vs veh, AFF3 / RFU, LMF1 / Fold change vs veh, LMF1 / RFU, IPO11 / Fold change vs veh, IPO11 / RFU, DFFB / Fold change vs veh, DFFB / RFU, FOXP1 / Fold change vs veh, FOXP1 / RFU, CARD8 / Fold change vs veh, CARD8 / RFU, STRN3 / Fold change vs veh, STRN3 / RFU, ADK / Fold change vs veh, ADK / RFU, RASSF2 / Fold change vs veh, RASSF2 / RFU, WIPF1 / Fold change vs veh, WIPF1 / RFU, LARP1B / Fold change vs veh, LARP1B / RFU, RASA1 / Fold change vs veh, RASA1 / RFU, RB1 / Fold change vs veh, RB1 / RFU, PPFIA1 / Fold change vs veh, PPFIA1 / RFU, MAT2A / Fold change vs veh, MAT2A / RFU, CCT5 / Fold change vs veh, CCT5 / RFU, WDR92 / Fold change vs veh, WDR92 / RFU, CUX1 / Fold change vs veh, CUX1 / RFU, TTC7A / Fold change vs veh, TTC7A / RFU, TMEM135 / Fold change vs veh, TMEM135 / RFU, DEPTOR / Fold change vs veh, DEPTOR / RFU, CPM / Fold change vs veh, CPM / RFU, DNAJB6 / Fold change vs veh, DNAJB6 / RFU, CACNA2D3 / Fold change vs veh, CACNA2D3 / RFU, DTX4 / Fold change vs veh, DTX4 / RFU, TFCP2 / Fold change vs veh, TFCP2 / RFU, GMCL1 /// GMCL1P1 / Fold change vs veh, GMCL1 /// GMCL1P1 / RFU, AEBP2 / Fold change vs veh, AEBP2 / RFU, SNHG1 /// SNORD22 /// SNORD25 /// SNORD26 /// SNORD27 /// SNORD28 /// SNORD29 /// SNORD31 / Fold change vs veh, SNHG1 /// SNORD22 /// SNORD25 /// SNORD26 /// SNORD27 /// SNORD28 /// SNORD29 /// SNORD31 / Fold change (Aza/veh), C12orf56 (ProbeSet 11735607_a_at) / Fold change (ACY-1035/veh), C12orf56 (ProbeSet 11735607_a_at) / Fold change (Aza/veh), FGFR1OP (ProbeSet 11751329_s_at) / Fold change (ACY-1035/veh), FGFR1OP (ProbeSet 11751329_s_at) / Fold change (Aza/veh), VPS36 (ProbeSet 11739960_a_at) / Fold change (ACY-1035/veh), VPS36 (ProbeSet 11739960_a_at) / RFU SYPL1 (11715823_x_at) / Fold change /veh SYPL1 (11715823_x_at) / RFU IGFBP7 (11715501_s_at) / Fold change /veh IGFBP7 (11715501_s_at) / RFU REEP3 (11722064_at) / Fold change /veh REEP3 (11722064_at) / RFU IGLL1 (11728026_x_at) / Fold change /veh IGLL1 (11728026_x_at): dose or concentration left out as unconfirmed
Details: ProbeSet 11754362_a_at; LIST D

SMILES: Nc1ncn([C@@H]2O[C@H](CO)[C@@H](O)[C@H]2O)c(=O)n1 [azacitidine]
- RFU, TTC7A: 124.13 RFU
